Assay results taken from PMC12155096 (International Journal of Molecular Sciences, 2025).
Like-named read-outs stand apart in the source and are kept apart here.

Key:
human CYP1A2 [1] = target: T1, human CYP1A2 (Homo sapiens, UniProt P05177); assay: biochemical
T1 sequence (P05177 1-516): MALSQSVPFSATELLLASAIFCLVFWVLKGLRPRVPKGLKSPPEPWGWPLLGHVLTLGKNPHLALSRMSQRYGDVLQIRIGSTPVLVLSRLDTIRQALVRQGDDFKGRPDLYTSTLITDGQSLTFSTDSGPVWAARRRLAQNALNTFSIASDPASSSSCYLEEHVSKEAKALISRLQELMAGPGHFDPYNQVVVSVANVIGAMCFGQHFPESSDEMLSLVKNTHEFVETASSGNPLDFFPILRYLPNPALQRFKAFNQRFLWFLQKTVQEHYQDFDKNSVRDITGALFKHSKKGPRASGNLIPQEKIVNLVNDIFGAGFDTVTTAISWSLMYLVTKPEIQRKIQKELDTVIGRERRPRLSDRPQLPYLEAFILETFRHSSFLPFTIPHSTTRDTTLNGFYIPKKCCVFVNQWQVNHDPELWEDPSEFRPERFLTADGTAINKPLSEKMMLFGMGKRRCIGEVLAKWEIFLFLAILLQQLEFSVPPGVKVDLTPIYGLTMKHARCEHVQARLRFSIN

human CYP2C9 [2] = target: T2, human CYP2C9 (Homo sapiens, UniProt P11712); details: human
T2 sequence (P11712 whole entry): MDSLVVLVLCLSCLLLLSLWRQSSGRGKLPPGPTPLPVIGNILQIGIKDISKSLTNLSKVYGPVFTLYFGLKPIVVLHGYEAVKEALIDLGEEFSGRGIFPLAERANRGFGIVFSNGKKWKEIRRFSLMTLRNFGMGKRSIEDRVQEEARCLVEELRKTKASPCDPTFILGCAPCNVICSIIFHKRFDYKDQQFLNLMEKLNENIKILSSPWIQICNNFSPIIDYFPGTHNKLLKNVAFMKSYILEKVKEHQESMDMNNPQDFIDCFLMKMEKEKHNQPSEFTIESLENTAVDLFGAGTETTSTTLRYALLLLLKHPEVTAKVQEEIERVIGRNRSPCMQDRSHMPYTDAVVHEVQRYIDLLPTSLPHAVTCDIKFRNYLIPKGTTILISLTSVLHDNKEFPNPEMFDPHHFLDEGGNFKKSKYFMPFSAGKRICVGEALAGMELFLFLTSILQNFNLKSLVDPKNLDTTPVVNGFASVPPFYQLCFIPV

human CYP2D6 [3] = target: T3, human CYP2D6 (Homo sapiens, UniProt P10635); details: human
T3 sequence (P10635 whole entry): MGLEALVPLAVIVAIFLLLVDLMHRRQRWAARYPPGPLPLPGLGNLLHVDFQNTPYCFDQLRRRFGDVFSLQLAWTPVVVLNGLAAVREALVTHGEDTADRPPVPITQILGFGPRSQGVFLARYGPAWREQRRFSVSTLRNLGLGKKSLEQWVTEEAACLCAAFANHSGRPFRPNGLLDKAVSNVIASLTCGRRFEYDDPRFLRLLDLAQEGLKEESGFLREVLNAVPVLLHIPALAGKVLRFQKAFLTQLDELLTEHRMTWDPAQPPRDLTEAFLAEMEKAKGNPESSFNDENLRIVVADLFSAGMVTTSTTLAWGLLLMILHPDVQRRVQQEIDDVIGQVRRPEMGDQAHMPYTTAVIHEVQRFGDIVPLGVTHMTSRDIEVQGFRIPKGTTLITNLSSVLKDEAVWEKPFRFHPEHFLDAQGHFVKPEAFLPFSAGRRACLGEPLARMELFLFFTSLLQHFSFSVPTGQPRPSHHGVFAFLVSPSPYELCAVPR

human CYP2C19 [4] = target: T4, human CYP2C19 (Homo sapiens, UniProt P33261); assay: biochemical
T4 sequence (P33261 whole entry): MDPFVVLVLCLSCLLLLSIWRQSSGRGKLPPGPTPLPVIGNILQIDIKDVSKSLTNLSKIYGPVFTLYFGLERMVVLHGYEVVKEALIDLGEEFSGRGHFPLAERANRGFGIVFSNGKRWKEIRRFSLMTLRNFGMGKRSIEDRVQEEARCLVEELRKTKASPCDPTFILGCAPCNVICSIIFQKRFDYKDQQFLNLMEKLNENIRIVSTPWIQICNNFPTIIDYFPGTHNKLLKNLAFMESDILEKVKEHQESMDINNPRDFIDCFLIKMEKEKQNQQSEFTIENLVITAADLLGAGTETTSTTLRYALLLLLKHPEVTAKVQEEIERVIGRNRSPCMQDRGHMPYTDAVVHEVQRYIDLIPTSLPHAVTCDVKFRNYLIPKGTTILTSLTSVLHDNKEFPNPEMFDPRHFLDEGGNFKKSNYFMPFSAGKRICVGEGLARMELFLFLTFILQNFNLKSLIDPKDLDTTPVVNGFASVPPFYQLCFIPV

human CYP2C9 [5] = target: T2, human CYP2C9; assay: biochemical
human CYP2D6 [6] = target: T3, human CYP2D6; assay: biochemical
human CYP1A2 [7] = target: T1, human CYP1A2; details: human
human CYP2C19 [8] = target: T4, human CYP2C19; details: human
[9] = CYP1A2 IC50 (half-maximal inhibitory concentration)
[10] = CYP2C19 IC50 (half-maximal inhibitory concentration)
[11] = CYP2C9 IC50 (half-maximal inhibitory concentration)
[12] = CYP2D6 IC50 (half-maximal inhibitory concentration)

| Compound | IC50 (human CYP1A2 [1]; [9]) | CYP2C9 Efficacy (in parenthesis) (human CYP2C9 [2]) | CYP2D6 Efficacy (in parenthesis) (human CYP2D6 [3]) | IC50 (human CYP2C19 [4]; [10]) | IC50 (human CYP2C9 [5]; [11]) | IC50 (human CYP2D6 [6]; [12]) | CYP1A2 Efficacy (in parenthesis) (human CYP1A2 [7]) | CYP2C19 Efficacy (in parenthesis) (human CYP2C19 [8]) | IC50 (human CYP1A2 [1]) | IC50 (human CYP2C19 [4]) | IC50 (human CYP2C9 [5]) | IC50 (human CYP2D6 [6]) | AC50 (human CYP1A2 [1]) | CYP2D6 Efficacy (in parenthesis) (human CYP2D6 [3]; 1 h) | AC50 (human CYP2C19 [4]) | AC50 (human CYP2C9 [5]) | AC50 (human CYP2D6 [6]) | IC50 (human CYP1A2 [1]; CYP1A2 IC50 (half-maximal inhibitory concentration), mean ± standard deviation from three experiments, qHTS) | IC50 (human CYP2C19 [4]; CYP2C19 IC50 (half-maximal inhibitory concentration), mean ± standard deviation from three experiments, qHTS) |
| --- | --- | --- | --- | --- | --- | --- | --- | --- | --- | --- | --- | --- | --- | --- | --- | --- | --- | --- | --- |
| c1ccc(-c2ccc(C(c3ccccc3)n3ccnc3)cc2)cc1 (stereo not shown) [Bifonazole] | 5.3 µM | 0.25 ± 0.05 (-104 ± 3) % | 1.82 ± 0.33 (-107 ± 6) % | 470 nM | 250 nM | 1820 nM | 5.3 ± 0.35 (-105 ± 4) % | 0.47 ± 0.14 (-136 ± 18) % | – | – | – | – | – | – | – | – | – | – | – |
| O=C1N(c2ccccc2)c2ccccc2C1(Cc1ccncc1)Cc1ccncc1 [Linopirdine] | – | 3.04 ± 0.74 (-95 ± 5) % | 20.69 ± 9.02 (-61 ± 27) % | – | – | – | 24.14 ± 9.56 (-50 ± 8) % | 1.71 ± 1.07 (-136 ± 7) % | 24.1 ± 9.56 µM | 1710 ± 1070 nM | 3040 ± 740 nM | 20700 ± 9020 nM | – | – | – | – | – | – | – |
| O=S(=O)(c1ccc(Cl)cc1)c1ccc(Cl)cc1 [4,4'-Dichlorodiphenyl sulfone] | 36.2 µM | 31.35 ± 2.66 (-52 ± 4) % | 40.58 ± 4.66 (-51 ± 10) % | 340 nM | 31400 nM | 40600 nM | 36.17 ± 4.16 (-44 ± 9) % | 0.34 ± 0.1 (-146 ± 11) % | – | – | – | – | – | – | – | – | – | – | – |
| COC(=O)c1c(Cl)c(Cl)c(C(=O)OC)c(Cl)c1Cl [Chlorthal-dimethyl] | – | – | – | – | – | – | – | – | 0.21 µM | 20700 nM | 1430 nM | 45000 nM | 0.29 µM | 44.96 ± 16.37 (-48 ± 8) % | 21.8 µM | 1.46 µM | – | – | – |
| N#C/C(=C1/SC[C@@H](c2ccc(Cl)cc2Cl)S1)n1ccnc1 [luliconazole, reference compound] | 0.33 µM | 0.52 ± 0.12 (-109 ± 5) % | 0.22 ± 0.03 (-105 ± 2) % | 460 nM | 520 nM | 220 nM | 0.33 ± 0.09 (-91 ± 7) % | 0.46 ± 0.08 (-137 ± 13) % | – | – | – | – | – | – | – | – | – | – | – |
| CC[N+](CC)(CC(=O)Nc1c(C)cccc1C)Cc1ccccc1 [Denatonium benzoate] | 38.5 µM | – | 0.01 ± 0 (-107 ± 7) % | 38500 nM | – | 10 nM | 38.47 ± 2.51 (-59 ± 16) % | 38.47 ± 2.51 (-100 ± 4) % | – | – | – | – | – | – | – | – | – | – | – |
| N#C/C(=C1/SCC(c2ccccc2Cl)S1)n1ccnc1 (stereo not shown) [Lanoconazole] | – | – | – | – | – | – | – | – | 0.87 ± 0.1 µM | 120 ± 50 nM | 2770 ± 320 nM | 2580 ± 460 nM | – | 2.58 ± 0.46 (-102 ± 1) % | – | – | – | – | – |
| Clc1ccc(CCC(Cn2ccnc2)Sc2c(Cl)cccc2Cl)cc1 (stereo not shown) [Butoconazole nitrate] | 16.1 µM | 0.1 ± 0.02 (-98 ± 4) % | 2.37 ± 0.15 (-100 ± 5) % | 40 nM | 100 nM | 2370 nM | 16.12 ± 1.09 (-93 ± 6) % | 0.04 ± 0.0 (-132 ± 17) % | – | – | – | – | – | – | – | – | – | – | – |
| Clc1ccc(COC(Cn2ccnc2)c2ccc(Cl)cc2Cl)cc1 (stereo not shown) [Econazole nitrate] | 1.18 µM | – | 0.4 ± 0.23 (-105 ± 10) % | 150 nM | – | 400 nM | 1.18 ± 0.6 (-104 ± 2) % | 0.15 ± 0.02 (-152 ± 3) % | – | – | – | – | – | – | – | – | – | – | – |
| CCOP(=S)(OCC)SCSc1ccc(Cl)cc1 [Carbophenothion] | 8.84 µM | 1.13 ± 0.13 (-94 ± 12) % | 13.25 ± 2.38 (-84 ± 7) % | 470 nM | – | – | 8.84 ± 2.46 (-90 ± 2) % | 0.47 ± 0.18 (-138 ± 5) % | – | – | 1130 nM | 13200 nM | – | – | – | – | – | – | – |
| CCOP(=S)(OCC)Oc1ccc2c(C)c(Cl)c(=O)oc2c1 [Coumaphos] | 3.5 µM | 0.28 ± 0.02 (-103 ± 5) % | 5.34 ± 0.96 (-101 ± 7) % | 320 nM | – | – | 3.5 ± 0.6 (-95 ± 2) % | 0.32 ± 0.04 (-144 ± 23) % | – | – | 280 nM | 5340 nM | – | – | – | – | – | – | – |
| CCCN(CCc1cccs1)[C@H]1CCc2c(O)cccc2C1 [Rotigotine] | – | 16.12 ± 1.09 (-56 ± 2) % | 0.4 ± 0.09 (-102 ± 0) % | – | – | – | 31.04 ± 3.57 (-46 ± 10) % | 2.55 ± 0.17 (-115 ± 10) % | 31 ± 3.57 µM | 2550 ± 170 nM | 16100 ± 1090 nM | 400 ± 90 nM | 31 ± 3.57 µM | – | 2.55 ± 0.17 µM | 16.1 ± 1.09 µM | 400 ± 90 nM | – | – |
| Clc1ccc(C(Cn2ccnc2)OCc2ccsc2Cl)c(Cl)c1 (stereo not shown) [Tioconazole] | 4.61 µM | 0.21 ± 0.09 (-104 ± 10) % | 2.79 ± 0.58 (-109 ± 6) % | 250 nM | 210 nM | 2790 nM | 4.61 ± 0.27 (-94 ± 11) % | 0.25 ± 0.09 (-140 ± 3) % | – | – | – | – | – | – | – | – | – | – | – |
| Clc1ccc(C(Cn2ccnc2)OCc2ccc(Sc3ccccc3)cc2)c(Cl)c1 (stereo not shown) [Fenticonazole nitrate] | – | 2.99 ± 0.41 (-103 ± 6) % | 0.37 ± 0.02 (-82 ± 4) % | – | – | – | 16.12 ± 1.09 (-89 ± 8) % | 2.65 ± 0.17 (-137 ± 20) % | 16.1 ± 1.09 µM | 2650 ± 170 nM | 2990 ± 410 nM | 370 ± 20 nM | – | – | – | – | – | – | – |
| CC(C)[N+](C)(CCC(C(N)=O)(c1ccccc1)c1ccccc1)C(C)C [Isopropamide] | 30.4 µM | 33.31 ± 14 (-72 ± 28) % | 0.7 ± 0.32 (-99 ± 8) % | 35600 nM | 33300 nM | 700 nM | 30.41 ± 7.39 (-70 ± 30) % | 35.59 ± 11.39 (-61 ± 21) % | – | – | – | – | – | – | – | – | – | – | – |
| Clc1ccc(Nc2nnc(Cc3ccncc3)c3ccccc23)cc1 [Vatalanib] | – | 0.79 ± 0.66 (-96 ± 3) % | 5.98 ± 9.87 (-107 ± 3) % | – | – | – | 2.03 ± 0.52 (-97 ± 14) % | 1.1 ± 0.95 (-157 ± 44) % | – | – | 790 nM | 5980 nM | – | – | – | – | – | 2.03 ± 0.52 µM | 1100 ± 950 nM |
| CC(C)=CCOc1c2occc2cc2ccc(=O)oc12 [Imperatorin] | 0.42 µM | 0.62 ± 0.07 (-96 ± 6) % | 4.72 ± 0.31 (-110 ± 6) % | 4360 nM | 620 nM | 4720 nM | 0.42 ± 0.17 (-97 ± 12) % | 4.36 ± 0.0 (-126 ± 1) % | – | – | – | – | – | – | – | – | – | – | – |
